Here are results for three molecules from patent US20240180881A1, “METHODS FOR DECREASING RESISTANCE TO CHEMOTHERAPY” (National Institute of Immunology, priority 2022, published 2024).

Assay [1] relates to HCT116 IC60 CPTR tumors. The assay can be described thus: siRNA-based ablation in xenograft studies. The assay is classed as in vivo, SCID mice. On the procedure: To determine whether the three key players (MRP2, BLM and RAD54) were indispensable for reverting chemoresistance in colon cancer, siRNA-based ablation in xenograft studies was carried out using SCID mice. Once the tumor volume reached 50 mm^3, either siControl or siRAD54 or siBLM or siMRP2 were injected at the base of the tumor using TAC6 polymer mediated in vivo delivery. The experiment was stopped after 21 days after which the levels of RAD54, BLM, MRP2 transcripts were analyzed by RT-qPCR to validate the downregulation of the cognate genes (FIG. 14A-14C). […] This is probably because of greater retention of CPT inside the tumors and thereby allowing increased chemotherapeutic potential of the drug (FIG. 7B).

Assay [2] has as its target T1, RAD54-BLM interaction (Homo sapiens, UniProt Q92698).
T1 construct: made in house; host or cells: E. coli BL-21 DE3
T1 sequence (Q92698 1-747): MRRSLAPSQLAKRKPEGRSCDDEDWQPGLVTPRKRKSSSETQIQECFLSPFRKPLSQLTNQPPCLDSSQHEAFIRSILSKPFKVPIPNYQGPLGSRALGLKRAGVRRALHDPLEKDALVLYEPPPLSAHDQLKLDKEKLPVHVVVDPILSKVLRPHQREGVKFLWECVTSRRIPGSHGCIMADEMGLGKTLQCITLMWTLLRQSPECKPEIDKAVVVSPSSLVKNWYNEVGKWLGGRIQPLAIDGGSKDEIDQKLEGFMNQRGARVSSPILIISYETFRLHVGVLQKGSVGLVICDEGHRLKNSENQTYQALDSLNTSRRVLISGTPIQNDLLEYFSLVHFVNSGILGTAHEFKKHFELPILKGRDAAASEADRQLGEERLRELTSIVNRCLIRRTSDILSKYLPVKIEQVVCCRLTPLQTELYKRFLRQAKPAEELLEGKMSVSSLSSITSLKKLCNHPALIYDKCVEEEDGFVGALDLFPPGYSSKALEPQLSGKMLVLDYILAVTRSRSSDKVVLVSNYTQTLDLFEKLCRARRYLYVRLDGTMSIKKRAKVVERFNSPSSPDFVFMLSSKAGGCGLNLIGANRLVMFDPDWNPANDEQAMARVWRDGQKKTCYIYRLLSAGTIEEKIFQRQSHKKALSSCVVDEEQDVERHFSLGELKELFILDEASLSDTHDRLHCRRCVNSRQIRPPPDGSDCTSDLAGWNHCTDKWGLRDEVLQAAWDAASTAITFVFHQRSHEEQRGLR
The assay can be described thus: In vitro interaction assay, bound GST-BLM WT and soluble His-RAD54 WT. The assay is classed as binding. The following applies: 10 μM compound. On the procedure: (§1) The levels of bound RAD54 were determined by immunoblotting with anti-RAD54 antibody (FIG. 5B). […] (Left) Direct westerns were carried out with antibodies against BLM, RAD54, bActin. (Right) immunoprecipitation (IP) was carried out with anti-BLM antibody. Westerns were carried out with anti-BLM, anti-RAD54 antibodies. The experiment was repeated three times and one representative experiment has been shown (FIG. 11B).
pcDNA3.1 Flag RAD54 was used for coupled in vitro transcription/translation of RAD54 using T7 Quick coupled Transcription/Translation System kit S^35 methionine. Interaction between bound GST-BLM (wildtype or mutants) and radiolabelled RAD54 were carried out as described previously (Gupta et al., 2014). […] 10 μM of the 3 compounds were used in the in vitro interaction assays.

Assay [3] has as its target T2, RAD54-BLM interaction in HEK293T cells (Homo sapiens, UniProt Q92698).
T2 construct: endogenous in cells; host or cells: HEK293T
T2 sequence (Q92698 1-747): T1 sequence (Q92698 1-747)
As to the kind of experiment: In cellulo interaction assay, immunoprecipitation with anti-BLM antibody. To be noted: 100 nM compound, 72 hours. It is filed as cell-based. On the procedure: as §1

The subject of assay [4] is MDR genes (MRP2, MRP3, MRP5, MXR) in HCT116 IC60 CPTR cells. To be noted: 100 nM compound alone, 72 hours. The procedure: Concentrations of CPT used: 0.140 nM, 20 nM, 50 nM, 1000 nM. Concentration of 1-OHP: 0.14 μM, 2 μM, 4 μM, 6 μM, 8 μM. Concentrations of CDDP used: 0.140 μM, 2 μM, 5 μM, 10 μM. The percentage of viable cells were determined by MTT assays (FIG. 12A-12C). The data in FIG. 12A and FIG. 12C is from three independent experiments and the data in FIG. 12B is from nine independent experiments. […] The levels of MRP2, MRP3, MRP5, MXR were quantitated from three independent experiments. […] Specifically, HCT116 IC60 CPTR cells were transfected with the HR substrate for 72 hours and the levels of HR was determined (FIG. 6A). The data is from three independent experiments. […] The number of soft agar colonies in each condition were counted. The data is from three independent experiments.

On to `CN1CCN(C2=Nc3ccccc3Oc3ccc(Cl)cc32)CC1.O=C(O)CCC(=O)O` [C17, Loxapine succinate], for which the tumor growth entry in assay [1] (siBLM, compound and CPT) is given as “rescued tumor growth”. Besides, the tumor volume entry in assay [1] (siControl, compound and CPT compared to only CPT) is “decreased tumor volume”. The tumor development result in assay [1] (siMRP2, compound and CPT) was “decreased tumor development”.
`CC(=O)Nc1nnc(S(N)(=O)=O)s1` [C3, Acetazolamide]: the “levels of RAD54 bound to GST-BLM WT” value in assay [2] is “disrupted the RAD54-BLM interaction”. Moreover, the “RAD54 co-immunoprecipitated with BLM” value in assay [3] is on record as “disrupted the RAD54-BLM interaction”. In addition, in assay [4], the “transcript levels of MDR genes” value is “do not alter the transcript levels of MDR genes”.
Consider `OCCN(CCO)c1nc(N2CCCCC2)c2nc(N(CCO)CCO)nc(N3CCCCC3)c2n1` [C7, Dipyridamole], for which the “levels of RAD54 bound to GST-BLM WT” value in assay [2] was “disrupted the RAD54-BLM interaction”. In addition, in assay [3], the “RAD54 co-immunoprecipitated with BLM” value is “disrupted the RAD54-BLM interaction”. Also, the “transcript levels of MDR genes” value in assay [4] is reported as “do not alter the transcript levels of MDR genes”.
